Results as given in patent US20220089710A1, “Method of Treating Signs and Symptoms of Osteoarthritis” (Pfizer Inc., priority 2019, published 2022).
Read-outs that look alike come from different tables or passages of the source.

How the values were obtained:
[1] = biological target: T1, NGF (Homo sapiens, UniProt P01138); conditions: cited from earlier work
[2] = test system: patients with moderate to severe OA of the hip or knee; test: Example 1: safety assessments (adverse events, neurological assessments); type: in vivo, human; conditions: SC 2.5 mg and 2.5/5 mg regimens
Description: Safety assessments included: adverse event (AE) reporting; laboratory testing; 12-lead electrocardiogram; sitting vital signs; orthostatic blood pressure assessments; physical examinations; musculoskeletal examinations; neurological examinations reported using the Neuropathy Impairment Score (Dyck et al., Neurology. 1995; 45(6):1115-1121); Survey of Autonomic Symptoms scores (Zilliox et al., Neurology. 2011; 76(12):1099-1105); adjudication of joint safety events including total joint replacements (TJRs); and anti-drug antibody assessments. AEs were coded using MedDRA v21.0. AE severity and relationship to study treatment were assessed by the investigator.
Patients meeting protocol-specified criteria were further evaluated for peripheral neuropathy and/or sympathetic autonomic neuropathy. Neurological examinations were conducted at all clinic visits by investigators or designated physicians who received protocol-required training, and findings were recorded using the Neuropathy Impairment Score (Dyck et al).

[3] = test system: patients with moderate to severe OA of the hip or knee; test: Example 1: randomized, double-blind, placebo-controlled dose-titration study of SC tanezumab (16-week treatment), efficacy: WOMAC Pain, WOMAC Physical Function, PGA-OA, average daily index joint pain; type: in vivo, human; conditions: for PGA-OA: Diff of LS Means vs placebo / PGA-OA: LS Mean change from Baseline / WOMAC Pain: Diff of LS Means vs placebo / WOMAC Pain: LS Mean change from Baseline / WOMAC Physical Function: Diff of LS Means vs placebo / WOMAC Physical Function: LS Mean change from Baseline / proportion of patients with ≥50% reduction from baseline in WOMAC Pain subscale: Week 16
Procedure: All patients provided written informed consent before participating. The study was conducted in compliance with the Declaration of Helsinki and all International Conference on Harmonisation Good Clinical Practice guidelines.
The co-primary efficacy endpoints were change from baseline to week 16 in WOMAC Pain subscale, WOMAC Physical Function subscale, and PGA-OA (Theiler et al., Osteoarthritis Cartilage. 2002; 10(6):479-481; Stengaard-Pederson et al., Rheumatology (Oxford). 2004; 43(5):592-595). WOMAC Pain and WOMAC Physical Function subscales measured symptoms within the last 48 hours; both used an 11-point numeric rating scale where higher scores indicated higher levels of pain or worse function. For PGA-OA, patients answered the question “Considering all the ways your osteoarthritis in your hip/knee affects you, how are you doing today?” on a scale from 1=“very good” to 5=“very poor.”
A key secondary efficacy endpoint was the WOMAC Pain […], responder rate at week 16. Other secondary efficacy endpoints were WOMAC Pain responder rates (≥30%, ≤70%, and ≤90%) at week 16 and patient-reported rescue medication use during weeks 2, 4, 8, 12, and 16.
Individual patient transitions in WOMAC Pain response categories (non-response defined as <30% reduction in WOMAC Pain; moderate response as ≥30%, but <50% reduction in WOMAC Pain; and substantial response as […], reduction from baseline in WOMAC Pain) between adjacent time points through the study (from week 4 to week 8, from week 8 to week 12, and from week 12 to week 16), were investigated using contingency tables. These analyses were conducted post hoc. Consistent non-responders were those patients with less than a 30% reduction from baseline in WOMAC Pain at two consecutive time points. Consistent moderate responders were those patients with at least a 30% but less than 50% reduction from baseline in WOMAC Pain at two consecutive time points. Consistent substantial responders were those patients who maintained at least a 50% reduction from baseline in WOMAC Pain at two consecutive time points.
Co-primary endpoints were analyzed in the intent-to-treat population (all patients who received ≥1 study medication dose) using an analysis of covariance model, with terms for baseline score, baseline patient diary average pain, index joint, Kellgren-Lawrence grade, and treatment group, and study site as a random effect. Missing data were handled with a multiple imputation strategy dependent on the reason for discontinuation.
Comparisons for other secondary endpoints were unadjusted. […] Safety assessments were summarized by treatment group as percentages of the treatment group population.

[4] = test system: patients with moderate to severe OA of the hip or knee; test: Example 1: adjudicated joint safety events (RPOA, TJR); type: in vivo, human
Procedure: Investigators performed musculoskeletal examinations at each study visit. Investigators evaluated patients reporting increased severe or persistent pain via eDiary lasting […] to determine if additional follow-up was needed. Post-baseline x-rays (scheduled or for cause) were assessed by the central reader for possible or probable RPOA, subchondral insufficiency fracture, primary osteonecrosis, or pathologic fracture. If warranted, magnetic resonance imaging scans were performed and/or patients were referred to an orthopedic surgeon. All cases of possible or probable joint safety events or cases of TJR for any reason were adjudicated by a blinded Adjudication Committee consisting of orthopedic surgery, rheumatology, orthopedic pathology, and musculoskeletal radiology experts.

[5] = test system: patients with osteoarthritis (OA) of the knee or hip; conditions: for PGA-OA: LS Mean (SE) change from Baseline / PGA-OA: LS Mean Difference vs. NSAID (SE) / WOMAC Pain ≥30% reduction: % of patients / WOMAC Pain ≥30% reduction: number of patients / WOMAC Pain ≥70% reduction: % of patients / WOMAC Pain ≥70% reduction: number of patients / WOMAC Pain ≥90% reduction: % of patients / WOMAC Pain ≥90% reduction: number of patients / WOMAC Pain: LS Mean Difference vs. NSAID (SE) / WOMAC Physical Function: LS Mean (SE) change from Baseline / WOMAC Physical Function: LS Mean Difference vs. NSAID (SE) / WOMAC Pain: LS Mean (SE) change from Baseline / WOMAC Pain ≥50% reduction: % of patients / WOMAC Pain ≥50% reduction: number of patients: Week 16; for PGA-OA: LS Mean Difference vs. NSAID / PGA-OA: LS Mean change from Baseline / WOMAC Pain: LS Mean Difference vs. NSAID / WOMAC Pain: LS Mean change from Baseline / WOMAC Physical Function: LS Mean Difference vs. NSAID / WOMAC Physical Function: LS Mean change from Baseline: Week 56;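 on all read-outs here: SC doses every 8 weeks plus twice-daily oral study drug to Week 56, efficacy assessed in all randomized patients given at least one SC dose, by assigned arm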
Procedure: Patients received a total of seven SC injections, each separated by 8 weeks and daily oral (PO) study medication BID through Week 56.
The Intent-to-Treat (ITT) Population included all patients who were randomized and received at least one dose of SC study drug. This analysis set was primary for all efficacy endpoints, which were analyzed according to randomization assignment. The Safety Population included all patients who received at least one dose of SC study treatment. This analysis set was primary for all safety endpoints, which were analyzed according to treatment received.

[6] = biological target: T1, NGF; conditions: cell culture models; cited from earlier work
[7] = both tanezumab regimens pooled (n=464)

T1 sequence (P01138 122-241): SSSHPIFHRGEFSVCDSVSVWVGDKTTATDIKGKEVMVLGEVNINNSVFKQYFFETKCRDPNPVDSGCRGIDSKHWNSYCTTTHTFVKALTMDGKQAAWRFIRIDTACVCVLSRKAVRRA

## tanezumab: humanized immunoglobulin G Type 2 (IgG2) monoclonal antibody directed against human nerve growth factor (NGF); SEQ ID NOs: 9 or 11 and 10
[1]
  binding to human NGF: high affinity and specificity
[2]
  overall safety and tolerability: generally safe and well-tolerated
[3]; 2.5 mg SC
  PGA-OA: Diff of LS Means vs placebo: −0.22
  PGA-OA: LS Mean change from Baseline: −0.87
  WOMAC Pain: Diff of LS Means vs placebo: −0.60
  WOMAC Pain: LS Mean change from Baseline: −3.23
  WOMAC Physical Function: Diff of LS Means vs placebo: −0.66
  WOMAC Physical Function: LS Mean change from Baseline: −3.22
  proportion of patients with ≥50% reduction from baseline in WOMAC Pain subscale: 54.5%
[3]; 2.5 mg group (10/88)
  week 8 non-responders (<30% reduction in WOMAC Pain) transitioning to a moderate response at week 12: 11.4%
[3]; 2.5 mg group (14/88)
  week 8 non-responders (<30% reduction in WOMAC Pain) transitioning to a substantial response at week 12: 15.9%
[3]; 2.5 mg group (138/231)
  patients maintaining a moderate or substantial response from week 8 to week 12: 59.7%
[3]; 2.5/5 mg SC
  PGA-OA: Diff of LS Means vs placebo: −0.25
  PGA-OA: LS Mean change from Baseline: −0.90
  WOMAC Pain: Diff of LS Means vs placebo: −0.73
  WOMAC Pain: LS Mean change from Baseline: −3.37
  WOMAC Physical Function: Diff of LS Means vs placebo: −0.89
  WOMAC Physical Function: LS Mean change from Baseline: −3.45
  proportion of patients with ≥50% reduction from baseline in WOMAC Pain subscale: 57.1%
[3]; 2.5/5 mg group (17/90)
  week 8 non-responders (<30% reduction in WOMAC Pain) transitioning to a substantial response at week 12: 18.9%
[3]; 2.5/5 mg group (20/90)
  week 8 non-responders (<30% reduction in WOMAC Pain) transitioning to a moderate response at week 12: 22.2%
[3]; 2.5/5 mg group (138/233)
  patients maintaining a moderate or substantial response from week 8 to week 12: 59.2%
[4]; 2.5 mg group
  events adjudicated as RPOA (types 1 and 2): % of group: 2.2%
[4]; 2.5/5 mg group
  events adjudicated as RPOA (types 1 and 2): % of group: 0.4%
[4]; both tanezumab regimens pooled
  adjudicated RPOA type 1 (accelerated joint space narrowing): n: 4
  adjudicated RPOA type 2 (damage or deterioration of the joint): n: 2
  tanezumab-treated patients with TJRs and adjudicated RPOA: 2
[4]; [7]
  adjudicated RPOA (type 1 or 2): % of tanezumab-treated patients: 1.3%
  adjudicated RPOA (type 1 or 2): number of tanezumab-treated patients: 6
[5]; 2.5 mg SC
  PGA-OA: LS Mean (SE) change from Baseline: −0.96 (0.04)
  PGA-OA: LS Mean Difference vs. NSAID (SE): −0.02 (0.04)
  WOMAC Pain ≥30% reduction: % of patients: 71.8%
  WOMAC Pain ≥30% reduction: number of patients: 718
  WOMAC Pain ≥70% reduction: % of patients: 28.9%
  WOMAC Pain ≥70% reduction: number of patients: 289
  WOMAC Pain ≥90% reduction: % of patients: 10.3%
  WOMAC Pain ≥90% reduction: number of patients: 103
  WOMAC Pain: LS Mean Difference vs. NSAID (SE): −0.15 (0.11)
  WOMAC Physical Function: LS Mean (SE) change from Baseline: −3.27 (0.11)
  WOMAC Physical Function: LS Mean Difference vs. NSAID (SE): −0.19 (0.11)
  PGA-OA: LS Mean Difference vs. NSAID: 0.01
  PGA-OA: LS Mean change from Baseline: −0.65
  WOMAC Pain: LS Mean Difference vs. NSAID: −0.02
  WOMAC Pain: LS Mean change from Baseline: −2.44
  WOMAC Physical Function: LS Mean Difference vs. NSAID: −0.05
  WOMAC Physical Function: LS Mean change from Baseline: −2.45
[5]; 2.5 mg SC, ITT, multiple imputation
  WOMAC Pain: LS Mean (SE) change from Baseline: −3.22 (0.11)
[5]; 2.5 mg SC, mixed BOCF/LOCF
  WOMAC Pain ≥50% reduction: % of patients: 54.9%
  WOMAC Pain ≥50% reduction: number of patients: 549
[5]; 5 mg SC
  PGA-OA: LS Mean (SE) change from Baseline: −0.97 (0.04)
  PGA-OA: LS Mean Difference vs. NSAID (SE): −0.04 (0.04)
  WOMAC Pain ≥30% reduction: % of patients: 72.9%
  WOMAC Pain ≥30% reduction: number of patients: 725
  WOMAC Pain ≥50% reduction: % of patients: 56.5%
  WOMAC Pain ≥50% reduction: number of patients: 562
  WOMAC Pain ≥70% reduction: % of patients: 35.0%
  WOMAC Pain ≥70% reduction: number of patients: 348
  WOMAC Pain ≥90% reduction: % of patients: 12.7%
  WOMAC Pain ≥90% reduction: number of patients: 126
  WOMAC Pain: LS Mean (SE) change from Baseline: −3.33 (0.11)
  WOMAC Pain: LS Mean Difference vs. NSAID (SE): −0.26 (0.11)
  WOMAC Physical Function: LS Mean (SE) change from Baseline: −3.39 (0.11)
  WOMAC Physical Function: LS Mean Difference vs. NSAID (SE): −0.31 (0.10)
  PGA-OA: LS Mean Difference vs. NSAID: 0.06
  PGA-OA: LS Mean change from Baseline: −0.60
  WOMAC Pain: LS Mean Difference vs. NSAID: 0.05
  WOMAC Pain: LS Mean change from Baseline: −2.37
  WOMAC Physical Function: LS Mean Difference vs. NSAID: 0.05
  WOMAC Physical Function: LS Mean change from Baseline: −2.36
[6]
  blocking of the activity of NGF: blocks the activity of NGF effectively
